Laboratory results published in ChEMBL document CHEMBL5291721, “A preclinical secondary pharmacology resource illuminates target-adverse drug reaction associations of marketed drugs” (Nat Commun, 2023).

Columns and labels:
Adenosine receptor A2a = Adenosine receptor A2a (Homo sapiens, UniProt P29274)
Adenosine receptor A3 = biological target: T1, Adenosine receptor A3 (Homo sapiens, UniProt P0DMS8)
T1 sequence (P0DMS8 whole entry): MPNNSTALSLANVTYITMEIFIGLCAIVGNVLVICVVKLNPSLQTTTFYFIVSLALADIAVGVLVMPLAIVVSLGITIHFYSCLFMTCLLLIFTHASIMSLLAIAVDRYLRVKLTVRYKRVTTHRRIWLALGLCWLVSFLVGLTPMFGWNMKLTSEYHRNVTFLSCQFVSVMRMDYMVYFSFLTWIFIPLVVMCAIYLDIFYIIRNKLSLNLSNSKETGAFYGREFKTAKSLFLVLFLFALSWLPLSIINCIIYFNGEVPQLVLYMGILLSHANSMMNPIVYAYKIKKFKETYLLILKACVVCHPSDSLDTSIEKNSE

[1] = biological target: T2, Cholecystokinin receptor type A (Homo sapiens, UniProt P32238)
T2 sequence (P32238 whole entry): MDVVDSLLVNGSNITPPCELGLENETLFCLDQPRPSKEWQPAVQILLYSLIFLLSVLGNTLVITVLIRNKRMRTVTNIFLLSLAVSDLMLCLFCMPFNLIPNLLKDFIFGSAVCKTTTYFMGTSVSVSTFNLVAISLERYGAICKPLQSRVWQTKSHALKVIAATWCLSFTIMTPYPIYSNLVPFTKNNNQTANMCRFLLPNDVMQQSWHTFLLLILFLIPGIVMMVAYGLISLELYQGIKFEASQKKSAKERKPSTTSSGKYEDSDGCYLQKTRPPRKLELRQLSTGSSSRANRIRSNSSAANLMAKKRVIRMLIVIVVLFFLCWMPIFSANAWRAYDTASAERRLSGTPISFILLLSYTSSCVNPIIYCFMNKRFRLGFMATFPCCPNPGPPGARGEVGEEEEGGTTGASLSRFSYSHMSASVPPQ

[2] = biological target: T3, Muscarinic acetylcholine receptor M2 (Homo sapiens, UniProt P08172); assay type: functional, cell-based
T3 sequence (P08172 whole entry): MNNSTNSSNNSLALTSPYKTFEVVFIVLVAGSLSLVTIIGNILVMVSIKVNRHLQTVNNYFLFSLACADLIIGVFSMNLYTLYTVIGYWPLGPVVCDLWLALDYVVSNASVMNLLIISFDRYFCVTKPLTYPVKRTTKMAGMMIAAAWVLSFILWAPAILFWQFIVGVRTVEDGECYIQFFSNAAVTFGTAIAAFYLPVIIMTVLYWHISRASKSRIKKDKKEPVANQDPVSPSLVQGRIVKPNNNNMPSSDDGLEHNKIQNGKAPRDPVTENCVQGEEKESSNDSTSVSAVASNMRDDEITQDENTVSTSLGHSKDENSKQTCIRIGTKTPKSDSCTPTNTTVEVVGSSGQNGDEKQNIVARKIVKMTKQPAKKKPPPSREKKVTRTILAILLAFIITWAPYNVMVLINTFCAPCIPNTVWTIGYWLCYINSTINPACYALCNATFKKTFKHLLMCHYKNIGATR

[3] = biological target: Muscarinic acetylcholine receptor M3 (Homo sapiens, UniProt P20309)
Histamine H1 receptor = Histamine H1 receptor (Homo sapiens, UniProt P35367)
[4] = biological target: 5-hydroxytryptamine receptor 2B (Homo sapiens, UniProt P41595); assay type: functional, cell-based
[5] = biological target: Voltage-gated inwardly rectifying potassium channel KCNH2 (Homo sapiens, UniProt Q12809); assay type: functional
Progesterone receptor [6] = biological target: T4, Progesterone receptor (Homo sapiens, UniProt P06401); assay type: functional
T4 sequence (P06401 whole entry): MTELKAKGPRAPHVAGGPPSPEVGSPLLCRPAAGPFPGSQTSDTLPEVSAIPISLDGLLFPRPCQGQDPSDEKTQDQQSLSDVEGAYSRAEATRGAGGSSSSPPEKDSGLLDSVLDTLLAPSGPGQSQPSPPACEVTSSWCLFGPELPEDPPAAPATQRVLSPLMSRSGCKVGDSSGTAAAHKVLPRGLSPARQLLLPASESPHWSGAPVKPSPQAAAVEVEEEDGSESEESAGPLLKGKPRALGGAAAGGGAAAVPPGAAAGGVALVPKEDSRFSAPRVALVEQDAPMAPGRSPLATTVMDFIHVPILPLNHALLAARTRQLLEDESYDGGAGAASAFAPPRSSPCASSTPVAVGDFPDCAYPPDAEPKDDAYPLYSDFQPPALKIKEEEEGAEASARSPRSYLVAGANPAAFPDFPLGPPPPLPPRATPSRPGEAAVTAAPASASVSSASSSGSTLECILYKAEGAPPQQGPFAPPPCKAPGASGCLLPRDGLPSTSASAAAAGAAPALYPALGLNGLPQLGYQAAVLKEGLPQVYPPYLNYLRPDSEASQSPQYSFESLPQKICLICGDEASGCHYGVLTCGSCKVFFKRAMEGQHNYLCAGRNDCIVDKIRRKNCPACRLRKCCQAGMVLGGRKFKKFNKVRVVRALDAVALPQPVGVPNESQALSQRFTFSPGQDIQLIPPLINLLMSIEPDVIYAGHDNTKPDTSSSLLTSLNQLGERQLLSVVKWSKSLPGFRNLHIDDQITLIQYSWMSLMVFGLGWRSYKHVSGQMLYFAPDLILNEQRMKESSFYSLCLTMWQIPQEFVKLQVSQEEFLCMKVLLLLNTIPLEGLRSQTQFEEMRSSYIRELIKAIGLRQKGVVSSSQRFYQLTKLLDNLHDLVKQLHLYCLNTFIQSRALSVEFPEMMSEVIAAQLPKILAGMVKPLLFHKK

Progesterone receptor [7] = biological target: T4, Progesterone receptor; assay type: functional; remark: listed apart in the source
Thromboxane A2 receptor = biological target: T5, Thromboxane A2 receptor (Homo sapiens, UniProt P21731)
T5 sequence (P21731 whole entry): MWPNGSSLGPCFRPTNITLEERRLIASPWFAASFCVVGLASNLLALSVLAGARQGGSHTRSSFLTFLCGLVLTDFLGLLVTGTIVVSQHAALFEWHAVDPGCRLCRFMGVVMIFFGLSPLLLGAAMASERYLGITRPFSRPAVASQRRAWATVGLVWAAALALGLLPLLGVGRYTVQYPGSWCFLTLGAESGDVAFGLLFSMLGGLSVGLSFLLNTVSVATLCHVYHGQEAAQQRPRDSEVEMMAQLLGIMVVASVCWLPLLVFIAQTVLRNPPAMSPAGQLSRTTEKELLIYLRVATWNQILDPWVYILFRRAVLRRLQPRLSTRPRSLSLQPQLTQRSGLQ

[8] = biological target: Sodium-dependent noradrenaline transporter (Homo sapiens, UniProt P23975)
Note: assay procedure not described here.

Chain of Adenosine receptor A2a (P29274 whole entry): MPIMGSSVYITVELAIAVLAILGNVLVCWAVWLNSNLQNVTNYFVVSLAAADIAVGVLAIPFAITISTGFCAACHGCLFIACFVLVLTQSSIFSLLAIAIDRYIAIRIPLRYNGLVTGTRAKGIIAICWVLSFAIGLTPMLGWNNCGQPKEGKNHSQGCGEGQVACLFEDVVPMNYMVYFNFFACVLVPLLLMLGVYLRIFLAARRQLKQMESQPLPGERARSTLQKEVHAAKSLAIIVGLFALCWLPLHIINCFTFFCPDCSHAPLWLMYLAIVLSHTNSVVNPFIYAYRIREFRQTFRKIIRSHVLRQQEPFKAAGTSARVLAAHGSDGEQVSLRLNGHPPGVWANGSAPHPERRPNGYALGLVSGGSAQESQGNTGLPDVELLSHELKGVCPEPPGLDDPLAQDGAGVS
Chain of Histamine H1 receptor (P35367 whole entry): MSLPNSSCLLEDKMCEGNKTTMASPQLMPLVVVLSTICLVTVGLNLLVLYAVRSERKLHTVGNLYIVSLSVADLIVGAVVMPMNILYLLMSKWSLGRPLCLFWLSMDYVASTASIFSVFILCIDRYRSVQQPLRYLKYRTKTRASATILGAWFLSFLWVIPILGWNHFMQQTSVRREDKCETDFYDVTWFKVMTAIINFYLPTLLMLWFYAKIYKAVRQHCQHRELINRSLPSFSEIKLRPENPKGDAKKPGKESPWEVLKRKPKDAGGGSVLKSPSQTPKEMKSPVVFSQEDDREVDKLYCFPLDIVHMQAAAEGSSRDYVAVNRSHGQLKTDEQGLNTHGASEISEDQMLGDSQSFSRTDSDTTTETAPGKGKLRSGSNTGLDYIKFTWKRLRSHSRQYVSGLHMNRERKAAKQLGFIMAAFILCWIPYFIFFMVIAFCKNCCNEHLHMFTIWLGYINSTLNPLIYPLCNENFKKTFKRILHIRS
Chain of 5-hydroxytryptamine receptor 2B (P41595 whole entry): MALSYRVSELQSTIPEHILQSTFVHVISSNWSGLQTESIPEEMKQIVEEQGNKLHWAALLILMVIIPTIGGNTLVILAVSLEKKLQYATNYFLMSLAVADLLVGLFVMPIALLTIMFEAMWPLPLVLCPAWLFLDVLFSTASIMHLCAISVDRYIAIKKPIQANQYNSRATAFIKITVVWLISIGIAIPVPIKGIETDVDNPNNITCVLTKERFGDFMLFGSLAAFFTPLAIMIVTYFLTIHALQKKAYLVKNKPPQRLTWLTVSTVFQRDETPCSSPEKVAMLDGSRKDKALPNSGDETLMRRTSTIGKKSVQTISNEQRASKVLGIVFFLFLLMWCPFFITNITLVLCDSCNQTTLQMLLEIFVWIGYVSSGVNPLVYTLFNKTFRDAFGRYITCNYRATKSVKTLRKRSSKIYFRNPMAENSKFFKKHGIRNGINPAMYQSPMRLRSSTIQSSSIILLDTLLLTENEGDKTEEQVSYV
Chain of Sodium-dependent noradrenaline transporter (P23975 whole entry): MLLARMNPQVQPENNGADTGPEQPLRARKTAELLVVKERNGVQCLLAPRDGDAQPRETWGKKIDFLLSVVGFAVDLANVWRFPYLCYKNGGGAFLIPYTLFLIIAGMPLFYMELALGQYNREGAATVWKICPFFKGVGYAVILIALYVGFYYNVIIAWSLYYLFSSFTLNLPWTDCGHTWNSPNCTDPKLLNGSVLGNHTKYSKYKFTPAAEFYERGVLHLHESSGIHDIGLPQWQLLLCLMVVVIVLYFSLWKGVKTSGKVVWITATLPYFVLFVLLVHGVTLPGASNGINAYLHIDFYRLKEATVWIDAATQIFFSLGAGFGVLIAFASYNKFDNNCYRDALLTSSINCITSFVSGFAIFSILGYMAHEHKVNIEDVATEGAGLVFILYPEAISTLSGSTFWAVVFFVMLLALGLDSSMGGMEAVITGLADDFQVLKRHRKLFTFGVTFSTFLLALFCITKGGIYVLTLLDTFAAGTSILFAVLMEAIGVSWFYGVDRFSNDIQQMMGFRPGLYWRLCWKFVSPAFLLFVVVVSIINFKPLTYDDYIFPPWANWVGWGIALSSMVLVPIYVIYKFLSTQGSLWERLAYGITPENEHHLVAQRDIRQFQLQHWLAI
Chain of Voltage-gated inwardly rectifying potassium channel KCNH2 (Q12809 whole entry): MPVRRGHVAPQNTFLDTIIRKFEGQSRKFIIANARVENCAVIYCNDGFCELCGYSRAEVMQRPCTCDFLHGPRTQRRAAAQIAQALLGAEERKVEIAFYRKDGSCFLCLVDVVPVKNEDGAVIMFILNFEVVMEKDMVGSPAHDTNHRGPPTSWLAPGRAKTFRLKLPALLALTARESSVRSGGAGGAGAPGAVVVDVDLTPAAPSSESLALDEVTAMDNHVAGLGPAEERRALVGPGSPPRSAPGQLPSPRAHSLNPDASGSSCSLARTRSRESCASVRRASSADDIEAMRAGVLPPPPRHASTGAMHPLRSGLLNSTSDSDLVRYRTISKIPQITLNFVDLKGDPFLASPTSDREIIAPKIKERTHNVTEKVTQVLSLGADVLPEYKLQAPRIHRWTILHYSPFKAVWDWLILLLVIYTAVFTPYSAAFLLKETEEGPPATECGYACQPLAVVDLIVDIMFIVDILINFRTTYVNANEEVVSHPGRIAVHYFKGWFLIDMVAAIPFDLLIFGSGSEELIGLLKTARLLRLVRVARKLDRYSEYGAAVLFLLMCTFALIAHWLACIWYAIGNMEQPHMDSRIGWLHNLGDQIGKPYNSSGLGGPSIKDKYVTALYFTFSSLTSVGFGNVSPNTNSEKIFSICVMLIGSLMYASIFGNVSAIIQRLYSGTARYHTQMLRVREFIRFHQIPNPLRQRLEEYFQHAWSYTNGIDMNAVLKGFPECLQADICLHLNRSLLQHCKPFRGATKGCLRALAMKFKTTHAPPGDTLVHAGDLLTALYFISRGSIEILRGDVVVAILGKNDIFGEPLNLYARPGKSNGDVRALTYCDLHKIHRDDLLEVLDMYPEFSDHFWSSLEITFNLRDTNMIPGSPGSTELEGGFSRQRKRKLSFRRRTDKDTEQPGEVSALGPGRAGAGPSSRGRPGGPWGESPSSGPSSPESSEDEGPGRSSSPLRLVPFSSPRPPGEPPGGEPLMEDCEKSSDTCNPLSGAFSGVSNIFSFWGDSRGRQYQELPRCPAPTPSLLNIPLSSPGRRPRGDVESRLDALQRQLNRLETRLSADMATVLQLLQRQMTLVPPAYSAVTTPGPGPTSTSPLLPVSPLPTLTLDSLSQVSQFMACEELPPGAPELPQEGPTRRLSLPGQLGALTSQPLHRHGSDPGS
Chain of Muscarinic acetylcholine receptor M3 (P20309 whole entry): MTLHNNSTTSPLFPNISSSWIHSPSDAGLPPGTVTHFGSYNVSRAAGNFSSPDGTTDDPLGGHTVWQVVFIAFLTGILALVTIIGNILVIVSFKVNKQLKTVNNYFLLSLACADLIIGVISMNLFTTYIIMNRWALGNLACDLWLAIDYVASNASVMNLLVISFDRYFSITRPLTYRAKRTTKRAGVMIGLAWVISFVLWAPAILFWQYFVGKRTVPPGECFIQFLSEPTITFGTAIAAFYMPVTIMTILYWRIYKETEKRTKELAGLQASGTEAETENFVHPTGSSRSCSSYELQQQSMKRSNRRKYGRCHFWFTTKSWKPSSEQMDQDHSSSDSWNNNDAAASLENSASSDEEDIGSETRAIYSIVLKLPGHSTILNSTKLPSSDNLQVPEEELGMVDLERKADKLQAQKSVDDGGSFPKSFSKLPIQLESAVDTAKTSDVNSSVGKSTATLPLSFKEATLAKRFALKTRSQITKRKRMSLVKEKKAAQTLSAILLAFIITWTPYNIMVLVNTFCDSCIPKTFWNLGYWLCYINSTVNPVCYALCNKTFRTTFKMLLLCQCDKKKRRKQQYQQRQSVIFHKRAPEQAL

| SMILES | AC50 (Adenosine receptor A2a) [µM] | AC50 (Adenosine receptor A3) [µM] | AC50 [1] [µM] | AC50 [2] [µM] | AC50 [3] [µM] | AC50 (Histamine H1 receptor) [µM] | AC50 [4] [µM] | AC50 [5] [µM] | AC50 (Progesterone receptor [6]) [µM] | AC50 (Progesterone receptor [7]) [µM] | AC50 (Thromboxane A2 receptor) [µM] | AC50 [8] [µM] |
| --- | --- | --- | --- | --- | --- | --- | --- | --- | --- | --- | --- | --- |
| C=C1/C(=C\C=C2/CCC[C@]3(C)[C@@H]([C@H](C)/C=C/[C@@H](O)C4CC4)CC[C@@H]23)C[C@@H](O)C[C@@H]1O [CALCIPOTRIENE] | > 30 | 12 | > 30 | > 30 | > 30 | > 30 | > 30 | > 30 | > 30 | 20 | > 30 | 20 |
| CCC(COC(=O)c1cc(OC)c(OC)c(OC)c1)(c1ccccc1)N(C)C (stereo not given) [TRIMEBUTINE] | > 30 | 30 | > 30 | > 30 | > 30 | > 30 | > 30 | 1.7 | > 30 | > 30 | > 30 | > 30 |
| CCCCCCCCCCCCCCCCCCCCCC(=O)Nc1ccn([C@@H]2O[C@H](CO)[C@@H](O)[C@@H]2O)c(=O)n1 [ENOCITABINE] | > 30 | > 30 | > 30 | > 30 | > 30 | > 30 | > 30 | > 30 | > 30 | > 30 | > 30 | > 30 |
| CCN(CC)C(=O)Nc1ccc(OCC(O)CNC(C)(C)C)c(C(C)=O)c1 (stereo not given) [CELIPROLOL] | > 30 | > 30 | > 30 | > 30 | > 30 | > 30 | > 30 | 17 | > 30 | > 30 | > 30 | > 30 |
| CC(=O)SC[C@@H](C)C(=O)N1CCC[C@H]1C(=O)N[C@@H](Cc1ccccc1)C(=O)O | > 30 | > 30 | > 30 | > 30 | > 30 | > 30 | > 30 | > 30 | > 30 | > 30 | > 30 | > 30 |
